Literature values in patent publication US20040126437A1, “Typing natural products” (priority 2000, published 2004).
Converted amounts (≈) assume the structure as drawn.

How the values were obtained:
H. pylori ATCC 43504 = details: strain ATCC 43504; cited from earlier work
[1] = cited from earlier work
H. pylori NTCT 11637 = details: strain NTCT 11637; cited from earlier work
[2] = test system: uterus colon carcinoma (line L5-26); details: L5-26 colon cells; cited from earlier work
[3] = Hepatocytes; read-out: Hepatoprotection Effect IC50 μM (Hepatocytes); cited from earlier work
[4] = test system: fibrosarcoma (line HT-1080); details: HT1080 fibrosarcoma cells; cited from earlier work
H. pylori NTCT 11916 = details: strain NTCT 11916; cited from earlier work

Compound | MIC (H. pylori mg/mL) ATCC 43504 (H. pylori ATCC 43504) | Antioxidant Activity (DPPH) [1] | MIC (H. pylori mg/mL) NTCT 11637 (H. pylori NTCT 11637) | Antitumor activity (LD50 μg/mL) L5-26 (Colon) [2] | IC50 [3] | Antitumor activity (LD50 μg/mL) HT1080 (Fibrosarcoma) [4] | MIC (H. pylori mg/mL) NTCT 11916 (H. pylori NTCT 11916)
CC(C)=CCc1cc(/C=C/C(=O)O)cc(C/C=C(\C)COC(=O)CCc2ccccc2)c1O [Compound 24] | 0.25 mg/mL (≈ 0.557 mM) | 12.2 µg/mL | 0.13 mg/mL (≈ 0.29 mM) | >100 µg/mL | 15.2 µM | >100 µg/mL | 0.25 mg/mL (≈ 0.557 mM)
COc1cc(/C=C/C=O)ccc1O [Compound 9] | >1 mg/mL | 11.1 µg/mL | >1 mg/mL | 10.44 µg/mL | 45.8 µM | 4.05 µg/mL | >1 mg/mL
C=C(C)[C@H]1Cc2cc(C(C)=O)ccc2O1 [Compound 16] | – | – | – | 58.09 µg/mL | – | 57.40 µg/mL | –
CC(C)=CCc1cc(/C=C/C(=O)O)ccc1O [Compound 7] | >1 mg/mL | – | >1 mg/mL | >100 µg/mL | 34.6 µM | >100 µg/mL | >1 mg/mL
CC(C)=CCc1cc(/C=C/C(=O)O)cc(CC=C(C)C)c1O [Compound 5] | >1 mg/mL | 5.6 µg/mL | >1 mg/mL | 59.32 µg/mL | – | 45.47 µg/mL | >1 mg/mL
CC(C)=CCc1cc(/C=C/C(=O)O)cc2c1OC(C)(C)C=C2 [Compound 2] | 1.00 mg/mL (≈ 3.35 mM) | – | 0.50 mg/mL (≈ 1.68 mM) | 50.22 µg/mL | 88.1 µM | 46.86 µg/mL | 0.50 mg/mL (≈ 1.68 mM)
COc1cc([C@@H]2OC=C(c3cc4cc(O)c(C(C)=O)cc4o3)C[C@H]2COC(C)=O)ccc1O [Compound 26] | >1 mg/mL | 29.1 µg/mL | >1 mg/mL | 12.4 µg/mL | 63.5 µM | 13.9 µg/mL | >1 mg/mL
C=C(CO)[C@H]1Cc2cc(O)c(C(C)=O)cc2O1 [Compound 17] | >1 mg/mL | – | >1 mg/mL | 57.15 µg/mL | – | 45.48 µg/mL | >1 mg/mL
CC1(C)C=Cc2cc(/C=C/C(=O)O)ccc2O1 [Compound 3] | >1 mg/mL | – | >1 mg/mL | >100 µg/mL | – | >100 µg/mL | >1 mg/mL
CC1(C)C=Cc2cc(C(=O)O)ccc2O1 [Compound 4] | – | – | – | >100 µg/mL | – | >100 µg/mL | –
CC(C)=CCc1cc(/C=C/C(=O)O)ccc1OC(=O)CCc1ccccc1 [Compound 6] | 0.50 mg/mL (≈ 1.37 mM) | – | 0.25 mg/mL (≈ 0.686 mM) | 77.90 µg/mL | 26.9 µM | 25.94 µg/mL | 0.50 mg/mL (≈ 1.37 mM)
CC(C)=CCc1cc(/C=C/C(=O)O)cc2c1OC(C)(C)C(O)C2 (stereo not shown) [Compound 1] | 0.25 mg/mL (≈ 0.79 mM) | – | 0.13 mg/mL (≈ 0.411 mM) | 77.07 µg/mL | – | 71.53 µg/mL | 0.25 mg/mL (≈ 0.79 mM)
C=C(C)C1Cc2cc(/C=C/C(=O)O)cc(CC=C(C)C)c2O1 (stereo not shown) [Compound 25] | 0.13 mg/mL (≈ 0.436 mM) | 15.0 µg/mL | 0.25 mg/mL (≈ 0.838 mM) | >100 µg/mL | – | >100 µg/mL | 0.13 mg/mL (≈ 0.436 mM)
C=C(COC(C)=O)[C@H]1Cc2cc(O)c(C(C)=O)cc2O1 [Compound 18] | 1.0 mg/mL (≈ 3.62 mM) | – | 1.0 mg/mL (≈ 3.62 mM) | >100 µg/mL | – | >100 µg/mL | 1.0 mg/mL (≈ 3.62 mM)
COc1cc([C@@H]2c3c(oc4cc(C(C)=O)c(O)cc34)C(=O)C[C@H]2COC(C)=O)ccc1O [Compound 27] | >1 mg/mL | 30.1 µg/mL | >1 mg/mL | 13.7 µg/mL | 15 µM | 43.2 µg/mL | >1 mg/mL
COc1ccc(-c2oc3cc(O)cc(O)c3c(=O)c2O)cc1 [Compound 22] | >1 mg/mL | – | 1.0 mg/mL (≈ 3.33 mM) | 70.98 µg/mL | 22 µM | 26.97 µg/mL | 1.0 mg/mL (≈ 3.33 mM)
